Results from patent publication US6447794B2, “Stomach-action molluscicides” (priority 1996, dated 2002).

Tests used:
Deroceras reticulatum [1] = settings: on wet soil after 10 days; cited from earlier work
Deroceras reticulatum [2] = test: preliminary trials, contact poison on a smooth glass surface; type: in vivo
Method: (§1) Subsequent trials compared the effective toxicity of methiocarb, metaldehyde bait pellets and ferric EDTA pellets and ferric EDTA bait powder to Helix aspersa and the effective toxicity of ferric EDTA to Deroceras reticulatum. Limited trials were carried out on Theba pisana (the white Italian snail), Cernuella virgata (the vineyard snail), Limax maximus and Cochlicella spp.

Helix apersa = test: as above; type: in vivo, Helix aspersa
Method: as §1

Row | SMILES | toxicity relative to Iron(III) EDTA (Deroceras reticulatum [1]) | toxicity as a contact poison (Deroceras reticulatum [2]) | toxicity as a contact poison (Helix apersa)
1 | CC(=O)/C=C(/C)[O-].CC(=O)/C=C(/C)[O-].CC(=O)/C=C(/C)[O-].[Fe+3] [Iron(III) 2,4-pentanedionate] | about twice to three times as toxic | – | –
2 | O=C([O-])CN(CCN(CC(=O)[O-])CC(=O)[O-])CC(=O)[O-].[Fe+3].[Na+] [ferric EDTA, Ferric sodium EDTA] | – | toxic | toxic
